Experimental data published in US9518018B2, “3-alkoxy, thioalkyl and amino-4-amino-6-(substituted)picolinates and their use as herbicides” (Dow AgroSciences LLC, priority 2011, dated 2016).

How the values were obtained:
Experiment in all cases: Post-Emergent Test I herbicidal activity
Type in all cases: in vivo
[1] = tested on: ABUTH: velvetleaf (Abutilon theophrasti); details: Abutilon theophrasti, post-emergence, 336 h, read-out: Visual Growth Reduction (%)-14 Days after Application ABUTH; for pest or weed control at 280 g/ha: Table 3, 280 g ai/ha; for pest or weed control at 140 g/ha: Table 3, 140 g ai/ha; for pest or weed control at 70 g/ha: Table 3, 70 g ai/ha
Protocol: (§1) Seeds or nutlets of the desired test plant species were planted in Sun Gro Metro-Mix® 360 planting mixture, which typically has a pH of 6.0 to 6.8 and an organic matter content of about 30 percent, in plastic pots with a surface area of 64 square centimeters. When required to ensure good germination and healthy plants, a fungicide treatment and/or other chemical or physical treatment was applied. The plants were grown for 7-21 d in a greenhouse with an approximate 15 h photoperiod which was maintained at about 23-29° C. during the day and 22-28° C. during the night. Nutrients and water were added on a regular basis and supplemental lighting was provided with overhead metal halide 1000-Watt lamps as necessary. The plants were employed for testing when they reached the first or second true leaf stage.
(§2) A weighed amount, determined by the highest rate to be tested, of each test compound was placed in a 25 mL glass vial and was dissolved in 4 mL of a 97:3 v/v mixture of acetone and DMSO to obtain concentrated stock solutions. […] The concentrated stock solutions obtained were diluted with 20 mL of an aqueous mixture containing acetone, water, isopropyl alcohol, DMSO, Atplus 411F crop oil concentrate, and Triton® X-155 surfactant in a 48.5:39:10:1.5:1.0:0.02 v/v ratio to obtain spray solutions containing the highest application rates. Additional application rates were obtained by serial dilution of 12 mL of the high rate solution into a solution containing 2 mL of 97:3 v/v mixture of acetone and DMSO and 10 mL of an aqueous mixture containing acetone, water, isopropyl alcohol, DMSO, Atplus 411F crop oil concentrate, and Triton X-155 surfactant in a 48.5:39:10:1.5:1.0:0.02 v/v ratio to obtain ½×, ¼×, ⅛× and 1/16× rates of the high rate. Compound requirements are based upon a 12 mL application volume at a rate of 187 liters per hectare (L/ha). Formulated compounds were applied to the plant material with an overhead Mandel track sprayer equipped with 8002E nozzles calibrated to deliver 187 L/ha over an application area of 0.503 square meters at a spray height of 18 inches (43 cm) above the average plant canopy height. Control plants were sprayed in the same manner with the solvent blank.
(§3) The treated plants and control plants were placed in a greenhouse as described above and watered by subirrigation to prevent wash-off of the test compounds. After 14 d, the condition of the test plants as compared with that of the untreated plants was determined visually and scored on a scale of 0 to 100 percent where 0 corresponds to no injury and 100 corresponds to complete kill.
(§4) By applying the well-accepted probit analysis as described by J. Berkson in Journal of the […], 48, 565 (1953) and by D. Finney in “Probit Analysis” Cambridge University Press (1952), the above data can be used to calculate GR20, GR50 and GR80 values, which are defined as growth reduction factors that correspond to the effective dose of herbicide required to kill or control 20 percent, 50 percent or 80 percent, respectively, of a target plant.

[2] = tested on: CHEAL: lambsquarters (Chenopodium album); details: Chenopodium album, post-emergence, 336 h, read-out: Visual Growth Reduction (%)-14 Days after Application CHEAL; for pest or weed control at 280 g/ha: Table 3, 280 g ai/ha; for pest or weed control at 140 g/ha: Table 3, 140 g ai/ha; for pest or weed control at 70 g/ha: Table 3, 70 g ai/ha
Protocol: as §1, §2, §3, §4

[3] = tested on: CYPES: yellow nutsedge (Cyperus esculentus); details: post-emergence, 336 h, read-out: Visual Growth Reduction (%)-14 Days after Application CYPES; for pest or weed control at 280 g/ha: Table 3, 280 g ai/ha; for pest or weed control at 140 g/ha: Table 3, 140 g ai/ha; for pest or weed control at 70 g/ha: Table 3, 70 g ai/ha
Protocol: as §1, §2, §3, §4

[4] = tested on: ECHCG: barnyardgrass (Echinochloa crus-galli); details: post-emergence, 336 h, read-out: Visual Growth Reduction (%)-14 Days after Application ECHCG; for pest or weed control at 280 g/ha: Table 3, 280 g ai/ha; for pest or weed control at 140 g/ha: Table 3, 140 g ai/ha; for pest or weed control at 70 g/ha: Table 3, 70 g ai/ha
Protocol: as §1, §2, §3, §4

[5] = tested on: EPHHL: wild poinsettia (Euphorbia heterophylla); details: post-emergence, 336 h, read-out: Visual Growth Reduction (%)-14 Days after Application EPHHL; for pest or weed control at 280 g/ha: Table 3, 280 g ai/ha; for pest or weed control at 140 g/ha: Table 3, 140 g ai/ha; for pest or weed control at 70 g/ha: Table 3, 70 g ai/ha
Protocol: as §1, §2, §3, §4

[6] = tested on: ORYSA: rice (Oryza sativa); details: post-emergence, 336 h, read-out: Visual Growth Reduction (%)-14 Days after Application ORYSA; for pest or weed control at 280 g/ha: Table 3, 280 g ai/ha; for pest or weed control at 140 g/ha: Table 3, 140 g ai/ha; for pest or weed control at 70 g/ha: Table 3, 70 g ai/ha
Protocol: as §1, §2, §3, §4

[7] = tested on: ZEAMX: corn (Zea mays); details: Zea mays, post-emergence, 336 h, read-out: Visual Growth Reduction (%)-14 Days after Application ZEAMX; for pest or weed control at 280 g/ha: Table 3, 280 g ai/ha; for pest or weed control at 140 g/ha: Table 3, 140 g ai/ha; for pest or weed control at 70 g/ha: Table 3, 70 g ai/ha
Protocol: as §1, §2, §3, §4

Compound	pest or weed control at 140 g/ha [1] [%]	pest or weed control at 140 g/ha [2] [%]	pest or weed control at 140 g/ha [3] [%]	pest or weed control at 140 g/ha [4] [%]	pest or weed control at 140 g/ha [5] [%]	pest or weed control at 140 g/ha [6] [%]	pest or weed control at 140 g/ha [7] [%]	other results
COC(=O)c1nc(Cl)c(F)c(N)c1OC [Compound 10, methyl 4-amino-6-chloro-5-fluoro-3-methoxypicolinate]								pest or weed control at 280 g/ha [1]: 100%; pest or weed control at 280 g/ha [2]: 100%; pest or weed control at 280 g/ha [3]: 0%; pest or weed control at 280 g/ha [4]: 0%; pest or weed control at 280 g/ha [5]: 100%; pest or weed control at 280 g/ha [6]: 0%; pest or weed control at 280 g/ha [7]: 25%
Nc1cc(-c2ccc(Cl)cc2F)nc(C(=O)O)c1OCC(F)(F)F [Compound 70]								pest or weed control at 280 g/ha [1]: 50%; pest or weed control at 280 g/ha [2]: 25%; pest or weed control at 280 g/ha [3]: 85%; pest or weed control at 280 g/ha [4]: 0%; pest or weed control at 280 g/ha [5]: 100%; pest or weed control at 280 g/ha [6]: 0%; pest or weed control at 280 g/ha [7]: 75%
C#Cc1ccc(-c2nc(C(=O)OC)c(OC)c(N)c2F)cc1 [Compound 30, methyl 4-amino-6-(4-ethynylphenyl)-5-fluoro-3-methoxypicolinate]	50	100	100	0	100	0	70	
C=Cc1nc(C(=O)OC)c(OC)c(N)c1F [Compound 12, methyl 4-amino-5-fluoro-3-methoxy-6-vinylpicolinate]								pest or weed control at 280 g/ha [1]: 0%; pest or weed control at 280 g/ha [2]: 70%; pest or weed control at 280 g/ha [3]: 0%; pest or weed control at 280 g/ha [4]: 0%; pest or weed control at 280 g/ha [5]: 0%; pest or weed control at 280 g/ha [6]: 0%; pest or weed control at 280 g/ha [7]: 0%
COC(=O)c1nc(-c2ccc(Br)cc2F)c(F)c(N)c1OC [Compound 22]	60	100	50	90	100	0	70	
COC(=O)c1nc(-c2ccc(I)cc2)c(F)c(N)c1OC [Compound 23, methyl 4-amino-5-fluoro-6-(4-iodophenyl)-3-methoxypicolinate]	70	100	100	80	100	0	70	
C=Cc1nc(C(=O)O)c(OC)c(N)c1F [Compound 95, 4-amino-5-fluoro-3-methoxy-6-vinylpicolinic acid]	0	60	0	0	30	0	0	
COC(=O)c1nc(-c2ccc(Br)c(F)c2F)c(F)c(N)c1OC [Compound 19, methyl 4-amino-6-(4-bromo-2,3-difluorophenyl)-5-fluoro-3-methoxypicolinate]								pest or weed control at 70 g/ha [1]: 85%; pest or weed control at 70 g/ha [2]: 100%; pest or weed control at 70 g/ha [3]: 90%; pest or weed control at 70 g/ha [4]: 75%; pest or weed control at 70 g/ha [5]: 100%; pest or weed control at 70 g/ha [6]: 0%; pest or weed control at 70 g/ha [7]: 70%
COc1c(C(=O)O)nc(-c2ccc(Cl)c(Cl)c2)c(F)c1N [Compound 79]								pest or weed control at 70 g/ha [1]: 80%; pest or weed control at 70 g/ha [2]: 100%; pest or weed control at 70 g/ha [3]: 90%; pest or weed control at 70 g/ha [4]: 70%; pest or weed control at 70 g/ha [5]: 95%; pest or weed control at 70 g/ha [6]: 15%; pest or weed control at 70 g/ha [7]: 80%
COc1c(C(=O)O)nc(-c2ccc(C(F)(F)F)c(F)c2)c(F)c1N [Compound 11, 4-amino-5-fluoro-6-(3-fluoro-4-(trifluoromethyl)phenyl)-3-methoxypicolinic acid]	100	100	50	100	100	12	80	
COC(=O)c1nc(-c2ccc(C3CC3)nc2)c(F)c(N)c1OC [Compound 76, methyl 4-amino-6′-cyclopropyl-3-fluoro-5-methoxy-[2,3′-bipyridine]-6-carboxylate]	85	80	95	0	97	0	50	
COC(=O)c1nc(C(C)F)cc(N)c1OC (centres unmarked) [Compound 83, methyl 4-amino-6-(1-fluoroethyl)-3-methoxypicolinate]	0	0	0	0	0	0	0	
COc1c(C(=O)O)nc(-c2ccc(Br)c(F)c2F)c(F)c1N [Compound 54]								pest or weed control at 70 g/ha [1]: 90%; pest or weed control at 70 g/ha [2]: 90%; pest or weed control at 70 g/ha [3]: 100%; pest or weed control at 70 g/ha [4]: 90%; pest or weed control at 70 g/ha [5]: 100%; pest or weed control at 70 g/ha [6]: 5%; pest or weed control at 70 g/ha [7]: 85%
COc1c(N)cc(C(C)F)nc1C(=O)O (centres unmarked) [Compound 84, 4-amino-6-(1-fluoroethyl)-3-methoxypicolinic acid]	10	30	0	0	0	0	0	
